How the values were obtained:
[1] = Pharmacokinetics in male Sprague Dawley rats; type: in vivo; conditions: rat, sc, mean, single subcutaneous administration of 200 nMol/kg, plasma
Method in brief: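 Male Sprague Dawley rats received a single subcutaneous dose of […], with blood sampled over 120 hours. Intact peptide in K3 EDTA plasma was measured by qualified high-resolution LC/MS after methanol/0.1% formic acid extraction with an analog internal standard; PK parameters from individual plasma concentrations.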

plasma cGMP = experiment: In vivo monkey studies, plasma cGMP ELISA; design: species or system male cynomolgus monkeys
Method in brief: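 Male cynomolgus monkeys received a single subcutaneous dose, with plasma sampled predose and at set timepoints. Plasma was diluted 1:20, acetylated and run in a competitive cGMP ELISA read at 405 nm. Values were interpolated from a 4-parameter standard curve, and the predose level was subtracted to give the net change (nM).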

Compound: CC[C@H](C)[C@@H]1NC(=O)[C@H](CCCNC(=N)N)NC(=O)[C@H](CC(=O)O)NC(=O)[C@H]([C@@H](C)CC)NC(=O)[C@H](CCCNC(=N)N)NC(=O)CNC(=O)CNC(=O)[C@H](Cc2ccccc2)NC(=O)[C@@H](NC(=O)[C@H](CO)NC(=O)[C@H](CO)NC(=O)[C@H](CCCNC(=N)N)NC(=O)CCNC(=O)[C@H](CCCCN)NC(=O)[C@H](CCC(=O)O)NC(=O)CNC(=O)[C@H](CCCCN)NC(=O)[C@H](CCC(=O)O)NC(=O)[C@H](CCCCN)NC(=O)[C@H](CCC(=O)O)NC(=O)[C@H](CCCCN)NC(=O)[C@H](CCC(=O)O)NC(=O)CC[C@H](NC(=O)CCCCCCCCCCCCCCCCCCC(=O)O)C(=O)O)CSCSC[C@@H](C(=O)N2CCC[C@H]2C(=O)N[C@@H](CO)C(=O)N[C@@H](Cc2ccccc2)C(=O)N[C@@H](CCCNC(=N)N)C(=O)N[C@@H](Cc2c[nH]cn2)C(=O)NCC(=O)NCC(=O)N2CCC[C@H]2C(=O)N[C@@H](CO)C(=O)N[C@@H](CO)C(=O)NCC(=O)N[C@@H](C)C(=O)N2CCC[C@H]2C(=O)N2CCC[C@H]2C(=O)N2CCC[C@H]2C(=O)N[C@@H](CO)C(N)=O)NC(=O)CNC(=O)[C@H](CC(C)C)NC(=O)CNC(=O)[C@H](CO)NC(=O)[C@H](Cc2ccc(O)cc2)NC(=O)[C@H](Cc2c[nH]cn2)NC(=O)CNC1=O [Example 56]
- CL/F [1]: 0.187 mL/min/kg
- half-life ([1]; read-out: t½ (converted)): 36 h
- Net cGMP (nM) Change from Baseline 0.083 h (plasma cGMP; dose 100 nmol/kg, 0.083 h postdose, monkey plasma): -2.8 nM
- Net cGMP (nM) Change from Baseline 0.25 h (plasma cGMP; dose 100 nmol/kg, 0.25 h postdose, monkey plasma): -0.66 nM
- Net cGMP (nM) Change from Baseline 0.5 h (plasma cGMP; dose 100 nmol/kg, 0.5 h postdose, monkey plasma): -0.65 nM
- Net cGMP (nM) Change from Baseline 1 h (plasma cGMP; dose 100 nmol/kg, 1 h postdose, monkey plasma): -0.51 nM
- Net cGMP (nM) Change from Baseline 2 h (plasma cGMP; dose 100 nmol/kg, 2 h postdose, monkey plasma): -1.82 nM
- Net cGMP (nM) Change from Baseline 4 h (plasma cGMP; dose 100 nmol/kg, 4 h postdose, monkey plasma): 1.83 nM
- Net cGMP (nM) Change from Baseline 8 h (plasma cGMP; dose 100 nmol/kg, 8 h postdose, monkey plasma): 10.57 nM
- Net cGMP (nM) Change from Baseline 12 h (plasma cGMP; dose 100 nmol/kg, 12 h postdose, monkey plasma): 12.11 nM
- Net cGMP (nM) Change from Baseline 24 h (plasma cGMP; dose 100 nmol/kg, 24 h postdose, monkey plasma): 17.03 nM
- Net cGMP (nM) Change from Baseline 36 h (plasma cGMP; dose 100 nmol/kg, 36 h postdose, monkey plasma): 16.59 nM
- Net cGMP (nM) Change from Baseline 48 h (plasma cGMP; dose 100 nmol/kg, 48 h postdose, monkey plasma): 11.66 nM
- Net cGMP (nM) Change from Baseline 72 h (plasma cGMP; dose 100 nmol/kg, 72 h postdose, monkey plasma): 11.45 nM
- Net cGMP (nM) Change from Baseline 96 h (plasma cGMP; dose 100 nmol/kg, 96 h postdose, monkey plasma): 9.32 nM
- Net cGMP (nM) Change from Baseline 120 h (plasma cGMP; dose 100 nmol/kg, 120 h postdose, monkey plasma): 9.31 nM
- Net cGMP (nM) Change from Baseline 144 h (plasma cGMP; dose 100 nmol/kg, 144 h postdose, monkey plasma): 7.36 nM
- Net cGMP (nM) Change from Baseline 168 h (plasma cGMP; dose 100 nmol/kg, 168 h postdose, monkey plasma): 1.99 nM
- net cGMP levels (result in words) (plasma cGMP; monkeys, single SC dose, plasma): increased net cGMP levels
